Measurements reported in US8703799B2, “Non-competitive NMDA receptor antagonists” (priority 2006, dated 2014).
Where “and” joins values, the source holds several entries; their conditions need not be identical. Equal entries are not always repeated.

Key:
[1] = test system: mice; assay: Acute toxicity (rotorod minimal motor impairment, overt signs, death) in mice; type: in vivo; design: key: (+++) means some animals died at 100 mg/kg and all animals died at 300 mg/kg; (++) means that some toxicity observed at 100 mg/kg and all animals died at 300 mg/kg; (−) means no toxicity observed at 100 mg/kg and some observed at 300 mg/kg but no animals died at 300 mg/kg; settings: i.p., 100 and 300 mg/kg
Description: Acute toxicity was assessed by monitoring animals for overt signs of impaired neurological or muscular function. The rotorod test measures minimal motor impairment (MMI) by placing mice on a rod rotated a 6 rpm. A compound is considered toxic if the mice fall off the rod three times during a 1-min period. Additionally, mice were observed and noted for circular or zigzag gaits, abnormal body posture and spread of the legs, tremors, hyperactivity, lack of exploratory behavior, somnolence, stupor, catalepsy, loss of placing response and change in muscle tone.
(§1) For activity, (+) means MES test protection occurred at 100 mg/kg delivered i.p. in mice and (−) means that no activity was observed. For toxicity, (+++) means some animals died at 100 mg/kg and all animals died at 300 mg/kg; (++) means that some toxicity observed at 100 mg/kg and all animals died at 300 mg/kg; and (−) means no toxicity observed at 100 mg/kg and some observed at 300 mg/kg but no animals died at 300 mg/kg.

[2] = test system: MES-induced seizures; assay: Maximal electroshock (MES) test for anti-convulsive activity in mice; type: in vivo; design: key: (+) means MES test protection occurred at 100 mg/kg delivered i.p. in mice; (−) means that no activity was observed; settings: i.p., 100 mg/kg
Description: The maximal electroshock (MES) test was used to initially screen compounds for anti-convulsive activity in mice.
In the MES test, 50 mA of […] alternating current was delivered to 19-25 g mice for 2 s by a corneal electrode which had been primed with an electrolyte solution containing an anesthetic agent (0.5% tetracaine HCl). Mice were tested at various intervals following doses of 30, 100 or 300 mg/kg of test compound given by i.p. injection in 0.01 ml/g of the aqueous carrier. Animals are considered protected from MES-induced seizures upon abolition of hindlimb tonic extensor component of the seizure (Swinyard et al. 1989; White et al. 1995a; White et al. 1995b).
as §1

[3] = pKa determination; type: physicochemical
[4] = test system: electrically-induced convulsions; assay: Anti-convulsive ED50 in rats, oral (electrically-induced convulsions); type: in vivo; settings: delivered orally, amelioration of electrically-induced convulsions
Description: Suitable dosages for the compounds and methods disclosed herein range from about 0.05, 0.1, 0.2 or 0.5 mg/kg body weight to about 100 or 200 mg/kg body weight. In certain embodiments, dosages range from about 0.5 to 1 mg/kg body weight to about 100 mg/kg body weight. In other embodiments doses range from about 10 to about 50 mg/kg body weight. Performance of studies to determine an optimal dosage for a particular condition using a particular compound is well within the level of ordinary skill in this field. […] For example, the ED50 of bicyclo,4-F-PCP for alleviation, treatment, or prevention of Alzheimer's and Parkinson's disease would be expected to be on the order of 3 mg/kg.
Compound 4 (Bicyclo,4-F-PCP) was tested in rats using 30 mg/kg delivered orally.

[5] = test system: NMDA receptors (MK-801 binding site); assay: MK-801 (dizocilpine) binding site assay; settings: rat forebrain membrane, 20 mM HEPES pH 7.5, 25° C., 90 min; FIG. 3
Description: NMDA receptors were isolated from rat forebrain membrane (Bmax=830 fmol/mg protein) and incubated with ^3H-labeled MK-801 maleate (15-30 Ci/mmol) in 20 mM HEPES (pH 7.5) buffer at 25° C. for 90 min to yield labeled receptors. MK-801 is a known non-competitive antagonist of NMDA receptor.
Selected concentrations of non-labeled bicyclo,4-F-PCP were incubated with the labeled receptors in 20 mM HEPES (pH 7.5) buffer at 25° C. for 90 min. At the conclusion of the assay, the reaction mixture was filtered immediately on glass filters by vacuum filtration and washed twice with buffer solutions. The radioactivity trapped on the filters was measured, compared with controls, and the ki and IC50 values of bicyclo,4-F-PCP were calculated.

[6] = log P determination; type: physicochemical; settings: measure of lipophilicity
[7] = Aqueous solubility of fumarate salt; type: physicochemical; settings: read-out: solubility in aqueous solution
[8] = test system: NMDA receptors (competitive site, CGP 39653); assay: NMDA agonist binding site assay ([3H]CGP 39653); settings: rat forebrain membrane, 50 mM TRIS-acetate pH 7.4, 0-4° C., 60 min; FIG. 4
Description: NMDA receptors were isolated from rat forebrain membrane (Bmax=0.77 pmol/mg tissue) and incubated with ^3H-labeled CGP 39653 (15-30 Ci/mmol) in 50 mM TRIS-acetate (pH 7.4) buffer at 0-4° C. for 60 min to yield labeled receptors. CGP 39653 is a known competitive antagonist of NMDA receptor.
Selected concentrations of non-labeled bicyclo,4-F-PCP were incubated with the labeled receptors in 50 mM TRIS-Acetate (pH 7.4) buffer at 0-4° C. for 60 min. At the conclusion of the assay, the reaction mixture was immediately filtered using glass filters and vacuum filtration, washing twice with buffer solutions. The radioactivity trapped on the filters was measured, compared with controls, and the ki and IC50 values of bicyclo,4-F-PCP calculated.

Row | SMILES | Toxicity [1] | Activity (MES test protection) [2] | pKa [3] | ED50 ([4]; Rattus norvegicus, po, read-out: ED50 (effective dose)) | ED50 (effective dose) ([4]; listed as bicyclo,4-F-PCP) | displacement of [3H] MK-801 maleate bound to NMDA receptors [5] | logP [6] | solubility [7] | displacement of CGP 39653 from NMDA receptors [8]
1 | NC1(c2ccc(F)cc2)CC2CCC1C2 (racemic) [Compound 2, (±)-2-(4-fluorophenyl)-bicyclo[2.2.1]hept-2-ylamine] | ++ | + |  |  |  |  |  |  | 
2 | NC1(c2ccccc2F)CCCCCC1 [cycloheptyl 2-F amine] | ++ | + |  |  |  |  |  |  | 
3 | Fc1ccc(C2(N3CCCCC3)CC3CCC2C3)cc1 (racemic) [Compound 4, (±) 1-[2-(4-fluorophenyl)-bicyclo[2.2.1]hept-2-yl]-piperidine] | − | + | 8.87 | 28.3 mg/kg | 28 mg/kg | can displace | 2.07 | 36600 µM and 14200 µg/mL | does not displace
4 | Fc1ccc(C2(N3CCCCC3)CCCCCC2)cc1 [cycloheptyl 4-F piperidine] | +++ | + |  |  |  |  |  |  | 
